Assay results published in patent US11679107B2 (Eisai R&D Management Co., Ltd., priority 2018, dated 2023).
Read-outs that look alike come from different tables or passages of the source.

Columns and labels:
[1] = target: T1, SF3b complexes (Homo sapiens, UniProt O75533+Q7RTV0); assay: Scintillation proximity assay (SPA) with [3H]-labelled pladienolide probe; assay type: binding; conditions: SF3B1 (WT); geometric mean; read-out: SPA-ATS GMean IC50 (nM) SF3B1 (WT)
T1 construct: endogenous in cells; host or cells: Nuclear extracts; A HeLa S3 extract preparation is described for the in vitro splicing assay
In short: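 SF3b complexes captured from nuclear extracts on anti-SF3B1 antibody SPA beads; test compounds pre-incubated 30 min before 2.5 nM [3H]-pladienolide probe added, then 30 min incubation. Bound probe read by scintillation; values from non-linear regression of concentration–response curves.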

[2] = tested on: Ad2 variant pre-mRNAs spliced in HeLa S3 nuclear extracts; assay: In vitro splicing assay (IVS), RT-qPCR of spliced product; assay type: biochemical; conditions: geometric mean
In short: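 Read-out is one-step TaqMan RT-qPCR of spliced Ad2 mRNA with Ftz as reference, normalized to DMSO and fit by non-linear regression. Reactions held HeLa S3 nuclear extract, 2 ng Ad2-derived pre-mRNA and test compound, with 15 min preincubation. Splicing was started with ATP-containing activation buffer and run 90 min at 30 °C.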

[3] = tested on: NCI-H1568 cells (high MCL1); assay: Cell proliferation and viability, CellTiter-Glo, 72 hours; assay type: cell-based; conditions: for GI50: geometric mean; for CTGlo-ATS Mean MinResponse % 72 h NCIH1568.1: −100% cidal, 0% static, 100% maximal growth
In short: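 ATP luminescence (CellTiter-Glo) was measured 72 h after treatment with compound at 10 μM–100 pM (11 points, half-log) in 0.1% DMSO. The Panc line was grown in RPMI-1640 plus insulin and 15% FBS, the other in 10% FBS. Data were normalised to time zero and vehicle controls, where −100% is cidal and 0% static.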

[4] = Ad2.1 pre-mRNA substrate, read-out: qPCR-IVS-ATS GMean IC50 (nM) Ad2.1
[5] = Ad2.2 pre-mRNA substrate, read-out: qPCR-IVS-ATS GMean IC50 (nM) Ad2.2
[6] = NCI-H1568, read-out: CTGlo-ATS GMean GI50 (nM) 72 h NCIH1568.1, NCIH1568.1 cells, 72 h
[7] = NCI-H1568, 72 h, read-out: CTGlo-ATS GMean GI50 (nM) 72 h NCIH1568.1, NCIH1568.1 cells, 72 h

SMILES	IC50 [1]	IC50 [2, 4]	IC50 [2, 5]	GI50 [3, 6]	CTGlo-ATS Mean MinResponse % 72 h NCIH1568.1 ([3]; NCIH1568.1 cells, 72 h)	GI50 [3, 7]
C/C(=C\c1cc(F)c2nnn([C@H]3CCCOC3)c2c1)[C@H]1OC(=O)C[C@H](O)CC[C@H](C)[C@@H](OC(=O)N2CCN(C)CC2)/C=C/[C@@H]1C [Compound 162]	1.08 nM	9.29 nM	7.4 nM	1.47 nM	−75.943%	
C/C(=C\c1cc(F)c2nnn(C3CCCCC3)c2c1)[C@H]1OC(=O)C[C@H](O)CC[C@H](C)[C@@H](OC(=O)N2CCN(C)CC2)/C=C/[C@@H]1C [Compound 164]	3.59 nM	20.7 nM	27.9 nM	1.54 nM	−87.159%	
COc1ccc(-n2nnc3c(F)cc(/C=C(\C)[C@H]4OC(=O)C[C@H](O)CC[C@H](C)[C@@H](OC(=O)N5CCN(C)CC5)/C=C/[C@@H]4C)cc32)cc1 [Compound 165]	18.7 nM	29.5 nM	15.2 nM	10 nM	−78.159%	
COc1ccc(Cn2nnc3c(F)cc(/C=C(\C)[C@H]4OC(=O)C[C@H](O)CC[C@H](C)[C@@H](OC(=O)N5CCN(C)CC5)/C=C/[C@@H]4C)cc32)cc1 [Compound 166]	23.8 nM	1510 nM	48.3 nM	17.6 nM	−66.370%	
C/C(=C\c1cc(F)cc(NC2CCN(S(C)(=O)=O)CC2)c1)[C@H]1OC(=O)C[C@H](O)CC[C@H](C)[C@@H](OC(=O)N2CCN(C)CC2)/C=C/[C@@H]1C [Compound 173]	21 nM	88.1 nM	28.4 nM		−79.437%	15.2 nM
CCN(c1cc(F)cc(/C=C(\C)[C@H]2OC(=O)C[C@H](O)CC[C@H](C)[C@@H](OC(=O)N3CCN(C)CC3)/C=C/[C@@H]2C)c1)C1CCN(S(C)(=O)=O)CC1 [Compound 175]	5.83 nM	9.5 nM	8.12 nM		−99.134%	9.49 nM
C/C(=C\c1cc(F)cc(N(C(C)C)C2CCN(S(C)(=O)=O)CC2)c1)[C@H]1OC(=O)C[C@H](O)CC[C@H](C)[C@@H](OC(=O)N2CCN(C)CC2)/C=C/[C@@H]1C [Compound 176]	38.5 nM	49.7 nM	31.2 nM	19 nM	−88.183%	
CC(=O)N1CCC(N(C)c2cc(F)cc(/C=C(\C)[C@H]3OC(=O)C[C@H](O)CC[C@H](C)[C@@H](OC(=O)N4CCN(C)CC4)/C=C/[C@@H]3C)c2)CC1 [Compound 177]	2.38 nM	18.2 nM	10.3 nM	3.62 nM	−80.643%	
CCC(=O)N1CCC(N(C)c2cc(F)cc(/C=C(\C)[C@H]3OC(=O)C[C@H](O)CC[C@H](C)[C@@H](OC(=O)N4CCN(C)CC4)/C=C/[C@@H]3C)c2)CC1 [Compound 178]	2.16 nM	20.4 nM	4.31 nM	6.85 nM	−77.714%	
COCC(=O)N1CCC(N(C)c2cc(F)cc(/C=C(\C)[C@H]3OC(=O)C[C@H](O)CC[C@H](C)[C@@H](OC(=O)N4CCN(C)CC4)/C=C/[C@@H]3C)c2)CC1 [Compound 179]	6.15 nM	31.4 nM	14.2 nM	8.7 nM	−82.684%	
C/C(=C\c1cc(F)cc(N(C)C2CCN(C(=O)c3ccccc3)CC2)c1)[C@H]1OC(=O)C[C@H](O)CC[C@H](C)[C@@H](OC(=O)N2CCN(C)CC2)/C=C/[C@@H]1C [Compound 180]	42.3 nM	29.9 nM	24.6 nM	14.4 nM	−86.471%	
C/C(=C\c1cc(F)cc(N(C)C2CCN(C(=O)C(F)(F)F)CC2)c1)[C@H]1OC(=O)C[C@H](O)CC[C@H](C)[C@@H](OC(=O)N2CCN(C)CC2)/C=C/[C@@H]1C [Compound 181]	8.2 nM	19.7 nM	19.2 nM	9.74 nM	−85.226%	
CCCS(=O)(=O)N1CCC(N(C)c2cc(F)cc(/C=C(\C)[C@H]3OC(=O)C[C@H](O)CC[C@H](C)[C@@H](OC(=O)N4CCN(C)CC4)/C=C/[C@@H]3C)c2)CC1 [Compound 182]	86.4 nM	208 nM	40.1 nM		−69.521%	23.4 nM
C/C(=C\c1cc(F)cc(N(C)C2CCN(S(=O)(=O)C3CCCC3)CC2)c1)[C@H]1OC(=O)C[C@H](O)CC[C@H](C)[C@@H](OC(=O)N2CCN(C)CC2)/C=C/[C@@H]1C [Compound 183]	66.3 nM	713 nM	20.3 nM		−66.270%	53.6 nM
C/C(=C\c1cc(F)cc(N(C)C2CCN(S(=O)(=O)c3cn(C)cn3)CC2)c1)[C@H]1OC(=O)C[C@H](O)CC[C@H](C)[C@@H](OC(=O)N2CCN(C)CC2)/C=C/[C@@H]1C [Compound 184]	14.4 nM	18.1 nM	11.6 nM	59.8 nM	−85.535%	
C/C(=C\c1cc(F)cc(N(C)C2CCN(S(=O)(=O)c3ccccc3)CC2)c1)[C@H]1OC(=O)C[C@H](O)CC[C@H](C)[C@@H](OC(=O)N2CCN(C)CC2)/C=C/[C@@H]1C [Compound 185]	186 nM	543 nM	46.6 nM	114 nM	−99.538%	
CC(=O)N1CCC(CN(C)c2cc(F)cc(/C=C(\C)[C@H]3OC(=O)C[C@H](O)CC[C@H](C)[C@@H](OC(=O)N4CCN(C)CC4)/C=C/[C@@H]3C)c2)CC1 [Compound 186]	12.6 nM	41.8 nM	17.4 nM		−70.969%	14.5 nM
C/C(=C\c1cc(F)cc(N(C)CC2CCN(S(C)(=O)=O)CC2)c1)[C@H]1OC(=O)C[C@H](O)CC[C@H](C)[C@@H](OC(=O)N2CCN(C)CC2)/C=C/[C@@H]1C [Compound 187]	43.2 nM	157 nM	59.6 nM	65 nM	−54.197%	
C/C(=C\c1cc(F)cc(N(C)C2CCN(C(=O)c3cnco3)CC2)c1)[C@H]1OC(=O)C[C@H](O)CC[C@H](C)[C@@H](OC(=O)N2CCN(C)CC2)/C=C/[C@@H]1C [Compound 188]	2.61 nM	7.41 nM	5.63 nM	2.77 nM	−79.922%	
C/C(=C\c1cc(F)cc(N(C)C2CCN(C(=O)c3cnccn3)CC2)c1)[C@H]1OC(=O)C[C@H](O)CC[C@H](C)[C@@H](OC(=O)N2CCN(C)CC2)/C=C/[C@@H]1C [Compound 189]	6.8 nM	16.9 nM	10.3 nM	9.53 nM	−76.052%	
C/C(=C\c1cc(F)cc(N(C)C2CCN(C(=O)c3cn(C)cn3)CC2)c1)[C@H]1OC(=O)C[C@H](O)CC[C@H](C)[C@@H](OC(=O)N2CCN(C)CC2)/C=C/[C@@H]1C [Compound 190]	6.55 nM	33.5 nM	15.7 nM	19.8 nM	−69.142%	
